Test results taken from patent publication US8017612B2, “Piperazine compound and use thereof as a HCV polymerase inhibitor” (priority 2006, dated 2011).

Legend:
[1] = molecular target: T1, HCV polymerase (NS5B) type 1b (Hepatitis C virus genotype 1b, UniProt P26663); experiment: Assay of enzyme (HCV polymerase) inhibitory activity, type 1b enzyme; format: biochemical, HCV BK strain (type 1b); settings: HCV polymerase inhibitory activity (IC50), 1b, type 1b enzyme 0.5 μg/ml, 25° C., 60 min
T1 construct: a region encoding NS5B (J Virol 1991 March, 65(3), 1105-13, 544 amino acids after deletion of 47 amino acids on the C-terminal); 6xHis (C); made in house; host or cells: Escherichia coli
Description: (§1) The evaluation of the HCV polymerase inhibitory activity of the compound of the present invention is explained in the following. This polymerase is an enzyme coded for by the non-structural protein region called NS5B on the genome RNA of HCV.
(§2) i) Preparation of Enzyme (HCV Polymerase)
(§3) Using, as a template, a cDNA clone corresponding to the full length genome RNA of HCV BK strain (type 1b) obtained from the blood of a patient with hepatitis C, a region encoding NS5B (J Virol 1991 March, 65(3), 1105-13, 544 amino acids after deletion of 47 amino acids on the C-terminal) was amplified by PCR. The objective gene was prepared by adding a 6 His tag {base pair encoding 6 continuous histidine (His)} to the 3′ end thereof and transformed to Escherichia coli. The Escherichia coli capable of producing the objective protein was cultured. The obtained cells were suspended in a buffer solution and crushed in a microfluidizer. The supernatant was obtained by centrifugation and applied to various column chromatographys {mono-S, Sephacryl S-200 (Pharmacia)}, inclusive of metal chelate chromatography, to give a standard enzyme product.
(§4) ii) Synthesis of Substrate RNA
(§5) Using a synthetic primer designed based on the sequence of HCV genomic 3′ untranslated region, a DNA fragment (148 bp) containing polyU and 3′X sequence was entirely synthesized and cloned into plasmid pBluescript SK II(+) (Stratagene). The cDNA encoding full length NS5B, which was prepared in i) above, was digested with restriction enzyme KpnI to give a cDNA fragment containing the nucleotide sequence of from the restriction enzyme cleavage site to the termination codon. This cDNA fragment was inserted into the upstream of 3′ untranslated region of the DNA in pBluescript SK II(+) and ligated. The about 450 bp inserted DNA sequence was used as a template in the preparation of substrate RNA. This plasmid was cleaved immediately after the 3′X sequence, linearized and purified by phenol-chloroform treatment and ethanol precipitation to give DNA.
(§6) RNA was synthesized (37° C., 4 hr) by run-off method using this purified DNA as a template, a promoter of pBluescript SK II(+), MEGAscript RNA synthesis kit (Ambion) and T7 RNA polymerase. DNase I was added and the mixture was incubated for 1 hr. The template DNA was removed by decomposition to give a crude RNA product. This crude product was treated with phenol-chloroform and purified by ethanol precipitation to give the objective substrate RNA.
(§7) This RNA was applied to urea denaturation polyacrylamide gel electrophoresis to confirm the quality thereof and preserved at −80° C.
(§8) iii) Assay of Enzyme (HCV Polymerase) inhibitory activity
(§9) A test substance (compound of the present invention) and a reaction mixture (30 μl) having the following composition were reacted at 25° C. for 60 min.
(§10) 10% Trichloroacetic acid and 1% sodium pyrophosphate solution (150 μl) at 4° C. was added to this reaction mixture to stop the reaction. The reaction mixture was left standing at 4° C. for 15 min to insolubilize RNA. This RNA was trapped on a glass filter (PerkinElmer, GF/B) upon filtration by suction. This filter was washed with a solution containing 1% trichloroacetic acid and 0.1% sodium pyrophosphate, washed with 90% ethanol and dried. A liquid scintillation cocktail (PerkinElmer) was added and the radioactivity of RNA synthesized by the enzyme reaction was measured on a liquid scintillation counter.
The HCV polymerase inhibitory activity (IC50) of the compound of the present invention was calculated from the values of radioactivity of the enzyme reaction with and without the test substance.
Reaction mixture: HCV polymerase (type 1b 0.5 μg/ml or type 1a 1.5 μg/m) obtained in i), substrate RNA (5 μg/ml) obtained in ii), ATP (50 μM), GTP (50 μM), CTP (50 μM), UTP (2 μM), [5,6-^3H]UTP (30-60 Ci/mmol (Amersham Biosciences), 1 μCi) 20 mM Tris-HCl (pH 7.5), EDTA (1 mM), MgCl2 (5 mM), NaCl (50 mM), DTT (1 mM), BSA (0.01%)

[2] = molecular target: T2, HCV polymerase (NS5B) type 1a (Hepatitis C virus genotype 1a, UniProt P26664); experiment: Assay of enzyme (HCV polymerase) inhibitory activity, type 1a enzyme; format: biochemical, HCV type 1a (cloned from the blood of patients); settings: HCV polymerase inhibitory activity (IC50), 1a, type 1a enzyme 1.5 μg/ml, 25° C., 60 min
T2 construct: made in house; host or cells: Escherichia coli (by the 'similar method' of the 1b enzyme)
Description: as §1, §2, §3
Standard enzyme products for type 1a (cloned from the blood of patients) were also obtained by a similar method.
as §4, §5, §6, §7, §8, §9, §10
The HCV polymerase inhibitory activity (IC50) of the compound of the present invention was calculated from the values of radioactivity of the enzyme reaction with and without the test substance. […]

SMILES: CC(=O)N1CCN(S(=O)(=O)c2ccc(Cl)cc2)C(C(=O)NCc2ccc(C(F)(F)F)cc2)C1 (stereo not drawn) [Example 20, 4-acetyl-1-(4-chloro-benzenesulfonyl)-piperazine-2-carboxylic acid 4-trifluoromethyl-benzylamide]
- IC50 [1]: > 1000 nM
- IC50 [2]: > 1000 nM

SMILES: CC(=O)N1CCN(S(=O)(=O)c2ccccc2Cl)C(C(=O)NCc2ccc(C(F)(F)F)cc2)C1 (stereo not drawn) [Example 21, 4-acetyl-1-(2-chloro-benzenesulfonyl)-piperazine-2-carboxylic acid 4-trifluoromethyl-benzylamide]
- IC50 [1]: > 1000 nM
- IC50 [2]: > 1000 nM

SMILES: CC(=O)N1CCN(S(=O)(=O)c2ccc(Br)cc2)C(C(=O)NCc2ccc(C(F)(F)F)cc2)C1 (stereo not drawn) [Example 22, 4-acetyl-1-(4-bromo-benzenesulfonyl)-piperazine-2-carboxylic acid 4-trifluoromethyl-benzylamide]
- IC50 [1]: > 1000 nM
- IC50 [2]: > 1000 nM

SMILES: CC(=O)N1CCN(S(=O)(=O)c2ccc(Br)s2)C(C(=O)NCc2ccc(C(F)(F)F)cc2)C1 (stereo not drawn) [Example 23, 4-acetyl-1-(5-bromo-thiophene-2-sulfonyl)-piperazine-2-carboxylic acid 4-trifluoromethyl-benzylamide]
- IC50 [1]: > 1000 nM
- IC50 [2]: > 1000 nM

SMILES: CC(=O)N1CCN(S(=O)(=O)c2ccccc2)C(C(=O)NCc2ccc(C(F)(F)F)cc2)C1 (stereo not drawn) [Example 24, 4-acetyl-1-benzenesulfonyl-piperazine-2-carboxylic acid 4-trifluoromethyl-benzylamide]
- IC50 [1]: > 1000 nM
- IC50 [2]: > 1000 nM

SMILES: CC(=O)N1CCN(S(=O)(=O)c2ccc(Oc3ccc(Cl)cc3)cc2)C(C(=O)NCc2ccc(C(F)(F)F)cc2)C1 (stereo not drawn) [Example 25, 4-acetyl-1-[4-(4-chloro-phenoxy)-benzenesulfonyl]-piperazine-2-carboxylic acid 4-trifluoromethyl-benzylamide]
- IC50 [1]: > 1000 nM
- IC50 [2]: > 1000 nM

SMILES: CC(=O)N1CCN(S(=O)(=O)c2ccc(-c3ccc(Cl)cc3)cc2)C(C(=O)NCc2ccc(C(F)(F)F)cc2)C1 (stereo not drawn) [Example 26, 4-acetyl-1-(4′-chloro-biphenyl-4-sulfonyl)-piperazine-2-carboxylic acid 4-trifluoromethyl-benzylamide]
- IC50 [1]: > 1000 nM
- IC50 [2]: > 1000 nM

SMILES: CC(=O)N1CCN(S(=O)(=O)c2cc(C)cc(C)c2Oc2ccc(C#N)cc2)C(C(=O)NCc2ccc(C(F)(F)F)cc2)C1 (stereo not drawn) [Example 27, 4-acetyl-1-[2-(4-cyano-phenoxy)-3,5-dimethyl-benzenesulfonyl]-piperazine-2-carboxylic acid 4-trifluoromethyl-benzylamide]
- IC50 [1]: > 1000 nM
- IC50 [2]: > 1000 nM

SMILES: CC(=O)N1CCN(S(=O)(=O)c2ccc(-c3ccc(Cl)cc3)s2)C(C(=O)NCc2ccc(C(F)(F)F)cc2)C1 (stereo not drawn) [Example 28, 4-acetyl-1-[5-(4-chloro-phenyl)-thiophene-2-sulfonyl]-piperazine-2-carboxylic acid 4-trifluoromethyl-benzylamide]
- IC50 [1]: > 1000 nM
- IC50 [2]: > 1000 nM

SMILES: CC(=O)N1CCN(S(=O)(=O)c2cccc(Cl)c2)C(C(=O)NCc2ccc(C(F)(F)F)cc2)C1 (stereo not drawn) [Example 29, 4-acetyl-1-(3-chloro-benzenesulfonyl)-piperazine-2-carboxylic acid 4-trifluoromethyl-benzylamide]
- IC50 [1]: > 1000 nM
- IC50 [2]: > 1000 nM

SMILES: CC(=O)N1CCN(S(=O)(=O)c2ccc(C(C)(C)C)cc2)C(C(=O)NCc2ccc(C(F)(F)F)cc2)C1 (stereo not drawn) [Example 30, 4-acetyl-1-(4-tert-butyl-benzenesulfonyl)-piperazine-2-carboxylic acid 4-trifluoromethyl-benzylamide]
- IC50 [1]: > 1000 nM
- IC50 [2]: > 1000 nM

SMILES: CC(=O)c1ccc(S(=O)(=O)N2CCN(C(C)=O)CC2C(=O)NCc2ccc(C(F)(F)F)cc2)cc1 (stereo not drawn) [Example 31, 4-acetyl-1-(4-acetyl-benzenesulfonyl)-piperazine-2-carboxylic acid 4-trifluoromethyl-benzylamide]
- IC50 [1]: > 1000 nM
- IC50 [2]: > 1000 nM
